molecular target: T1, human clotting factor VIIa (Homo sapiens, UniProt P08709); assay: Inhibitory activity against clotting factor VIIa (chromogenic substrate Spectrozyme FVIIa, TF/Factor VIIa enzyme solution); format: biochemical; settings: human Factor VIIa 5 nmol/L with human TF 10 nmol/L, room temperature 40 minutes, 405 nm
T1 construct: a human clotting factor VIIa (hereinafter, “Factor VIIa”) purified sample; purchased Enzyme Research Laboratories HFVIIa
How it was run: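 Human Factor VIIa (5 nmol/L) with human TF (10 nmol/L) in Tris-BSA buffer pH 7.4 containing 15 mmol/L CaCl2 and cephalin, with Spectrozyme FVIIa substrate. Reaction 40 min at room temperature; 4-nitroanilide read at 405 nm. IC50 by non-linear regression over 100 μmol/L–0.1 nmol/L.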

T1 sequence (P08709 213-466 limits assumed): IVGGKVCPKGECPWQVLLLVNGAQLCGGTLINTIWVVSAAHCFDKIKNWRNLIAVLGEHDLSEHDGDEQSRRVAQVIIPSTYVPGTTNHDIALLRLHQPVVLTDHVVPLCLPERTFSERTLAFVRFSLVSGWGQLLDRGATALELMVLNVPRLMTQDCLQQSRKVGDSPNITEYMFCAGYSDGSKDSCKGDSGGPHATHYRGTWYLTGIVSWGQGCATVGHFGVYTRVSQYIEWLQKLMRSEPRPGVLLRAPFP
T1 sequence (P08709 61-212 limits assumed): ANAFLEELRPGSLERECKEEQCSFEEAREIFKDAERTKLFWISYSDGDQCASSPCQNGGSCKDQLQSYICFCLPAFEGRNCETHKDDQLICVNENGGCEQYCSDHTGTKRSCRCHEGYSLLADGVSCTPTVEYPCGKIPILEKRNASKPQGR
T1 sequence (P13726 33-295 partner): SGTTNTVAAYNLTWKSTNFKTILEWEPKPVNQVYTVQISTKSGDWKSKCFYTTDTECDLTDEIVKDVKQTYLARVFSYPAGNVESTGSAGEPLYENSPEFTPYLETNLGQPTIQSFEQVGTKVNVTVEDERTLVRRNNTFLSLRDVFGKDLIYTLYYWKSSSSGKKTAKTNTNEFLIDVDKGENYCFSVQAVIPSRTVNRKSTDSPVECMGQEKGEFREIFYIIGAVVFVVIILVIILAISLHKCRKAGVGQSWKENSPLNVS

Compound | IC50 [nM]
CCOc1ccc(F)c(C(Nc2ccc(C(=N)N)cc2)c2nn(-c3ncccn3)c(=O)[nH]2)c1 (racemic) [Example 96, 4-{[(R) and (S)-(5-ethoxy-2-fluorophenyl)-(5-oxo-1-pyrimidin-2-yl-4,5-dihydro-1H-[1,2,4]triazol-3-yl)methyl]amino}benzamidine acetate] | 17
Cc1cc(C(Nc2ccc(C(=N)N)cc2)c2nn(-c3ncccn3)c(=O)[nH]2)cc2c1OCOC2 (racemic) [Example 97, 4-{[(R) and (S)-(8-methyl-4H-benzo[1,3]dioxin-6-yl)-(5-oxo-1-pyrimidin-2-yl-4,5-dihydro-1H-[1,2,4]triazol-3-yl)methyl]amino}benzamidine acetate] | 11.3
N=C(N)c1ccc(NC(c2nn(-c3ncccn3)c(=O)[nH]2)c2cc(OCCF)cc(OCCF)c2F)cc1 (racemic) [Example 98, 4-{[(R) and (S)-[2-fluoro-3,5-bis-(2-fluoroethoxy)phenyl]-(5-oxo-1-pyrimidin-2-yl-4,5-dihydro-1H-[1,2,4]triazol-3-yl)methyl]amino}benzamidine acetate] | 28.7
COc1cc(F)c(C(Nc2ccc(C(=N)N)cc2)c2nn(-c3cnccn3)c(=O)[nH]2)cc1OC (racemic) [Example 101, 4-{[(R) and (S)-(2-fluoro-4,5-dimethoxyphenyl)-(5-oxo-1-pyrazin-2-yl-4,5-dihydro-1H-[1,2,4]triazol-3-yl)methyl]amino}benzamidine acetate] | 11
COc1cc(C(Nc2ccc(C(=N)N)cc2)c2nn(-c3cnccn3)c(=O)[nH]2)cc2c1OCOC2 (racemic) [Example 102, 4-{[(R) and (S)-(8-methoxy-4H-benzo[1,3]dioxin-6-yl)-(5-oxo-1-pyrazin-2-yl-4,5-dihydro-1H-[1,2,4]triazol-3-yl)methyl]amino}benzamidine acetate] | 11.5
COc1cc(OCF)c(F)c(C(Nc2ccc(C(=N)N)cc2)c2nn(-c3ncccn3)c(=O)[nH]2)c1 (racemic) [Example 103, 4-{[(R) and (S)-(2-fluoro-3-fluoromethoxy-5-methoxyphenyl)-(5-oxo-1-pyrimidin-2-yl-4,5-dihydro-1H-[1,2,4]triazol-3-yl)methyl]amino}benzamidine acetate] | 8.9
COc1cc(OCF)cc(C(Nc2ccc(C(=N)N)cc2)c2nn(-c3ncccn3)c(=O)[nH]2)c1 (racemic) [Example 104, 4-{[(R) and (S)-(3-fluoromethoxy-5-methoxyphenyl)-(5-oxo-1-pyrimidin-2-yl-4,5-dihydro-1H-[1,2,4]triazol-3-yl)methyl]amino}benzamidine acetate] | 8.9
COc1cc(F)c(C(Nc2ccc(C(=N)N)cc2)c2nn(-c3ncccn3)c(=O)[nH]2)cc1OC (racemic) [Example 111, 4-{[(R) and (S)-(2-fluoro-4,5-dimethoxyphenyl)-(5-oxo-1-pyrimidin-2-yl-4,5-dihydro-1H-[1,2,4]triazol-3-yl)methyl]amino}benzamidine acetate] | 11.3
CCOc1cc(C(Nc2ccc(C(=N)N)cc2)c2nn(-c3ncccn3)c(=O)[nH]2)c(F)cc1OC (racemic) [Example 115, (R) and (S)-4-{[(5-ethoxy-2-fluoro-4-methoxyphenyl)-(5-oxo-1-pyrimidin-2-yl-4,5-dihydro-1H-[1,2,4]triazol-3-yl)methyl]amino}benzamidine acetate] | 11.5
COc1cc(C(Nc2ccc(C(=N)N)cc2)c2nn(-c3ncccn3)c(=O)[nH]2)cc(F)c1OC (racemic) [Example 116, (R) and (S)-4-{[(3-fluoro-4,5-dimethoxyphenyl)-(5-oxo-1-pyrimidin-2-yl-4,5-dihydro-1H-[1,2,4]triazol-3-yl)methyl]amino}benzamidine acetate] | 11.9
COc1ccc(C(Nc2ccc(C(=N)N)cc2)c2nn(-c3ncccn3)c(=O)[nH]2)cc1OCCF (racemic) [Example 117, (R) and (S)-4-({[3-(2-fluoroethoxy)-4-methoxyphenyl]-(5-oxo-1-pyrimidin-2-yl-4,5-dihydro-1H-[1,2,4]triazol-3-yl)methyl}amino)benzamidine acetate] | 22.4
COc1cc(C(Nc2ccc(C(=N)N)cc2)c2nn(-c3ncccn3)c(=O)[nH]2)cc2c1OCOCC2 (racemic) [Example 130, (R) and (S)-4-{[(4-methoxy-8,9-dihydro-5,7-dioxabenzocyclohepten-2-yl)-(5-oxo-1-pyrimidin-2-yl-4,5-dihydro-1H-[1,2,4]triazol-3-yl)methyl]amino}benzamidine acetate] | 10.6

Stronger by IC50, values ahead:

IC50 [nM] | Compound
1.3 | COc1ccccc1-n1nc(C(Nc2ccc(C(=N)N)cc2)c2cc3c(c(OC)c2)OCOC3)[nH]c1=O (racemic) [Example 95, 4-({(R) and (S)-(8-methoxy-4H-benzo[1,3]dioxin-6-yl)-[1-(2-methoxyphenyl)-5-oxo-4,5-dihydro-1H-[1,2,4]triazol-3-yl]methyl}amino)benzamidine acetate]
3.9 | COc1cc(OCC(F)F)c(F)c(C(Nc2ccc(C(=N)N)cc2)c2nn(-c3ncccn3)c(=O)[nH]2)c1 (racemic) [Example 99, 4-{[(R) and (S)-[3-(2,2-difluoroethoxy)-2-fluoro-5-methoxyphenyl]-(5-oxo-1-pyrimidin-2-yl-4,5-dihydro-1H-[1,2,4]triazol-3-yl)methyl]amino}benzamidine acetate]
5.3 | COc1cc(OCCF)c(F)c(C(Nc2ccc(C(=N)N)cc2)c2nn(-c3cnccn3)c(=O)[nH]2)c1 (racemic) [Example 100, 4-{[(R) and (S)-[2-fluoro-3-(2-fluoroethoxy)-5-methoxyphenyl]-(5-oxo-1-pyrazin-2-yl-4,5-dihydro-1H-[1,2,4]triazol-3-yl)methyl]amino}benzamidine acetate]
8 | COC(=O)c1ccccc1-n1nc(C(Nc2ccc(C(=N)N)cc2)c2cc(OC)c(OC)cc2F)[nH]c1=O (racemic) [Example 108, (R) and (S)-2-{3-[(4-carbamimidoylphenylamino)-(2-fluoro-4,5-dimethoxyphenyl)methyl]-5-oxo-4,5-dihydro-[1,2,4]triazol-1-yl}benzoic acid methyl ester acetate]
7.9 | COc1cc(F)c(C(Nc2ccc(C(=N)N)cc2)c2nn(-c3ccccc3C(N)=O)c(=O)[nH]2)cc1OC (racemic) [Example 109, (R) and (S)-2-{3-[(4-carbamimidoylphenylamino)-(2-fluoro-4,5-dimethoxyphenyl)methyl]-5-oxo-4,5-dihydro-1H-[1,2,4]triazol-1-yl}benzamide acetate]
6.6 | COc1ccc(C(Nc2ccc(C(=N)N)cc2)c2nn(-c3ccccc3C(N)=O)c(=O)[nH]2)cc1OC (racemic) [Example 110, (R) and (S)-2-{3-[(4-carbamimidoylphenylamino)-(3,4-dimethoxyphenyl)methyl]-5-oxo-4,5-dihydro-1H-[1,2,4]triazol-1-yl}benzamide acetate]
7.3 | C=CCOc1cc(C(Nc2ccc(C(=N)N)cc2)c2nn(-c3ncccn3)c(=O)[nH]2)ccc1OC (racemic) [Example 118, (R) and (S)-4-{[(3-allyloxy-4-methoxyphenyl)-(5-oxo-1-pyrimidin-2-yl-4,5-dihydro-1H-[1,2,4]triazol-3-yl)methyl]amino}benzamidine acetate]
7 | COc1cc(F)c(C(Nc2ccc(C(=N)N)cc2)c2nn(-c3cccnn3)c(=O)[nH]2)cc1OC (racemic) [Example 119, (R) and (S)-4-{[(2-fluoro-4,5-dimethoxyphenyl)-(5-oxo-1-pyridazin-3-yl-4,5-dihydro-1H-[1,2,4]triazol-3-yl)methyl]amino}benzamidine acetate]
6.8 | CCOc1cc(C(Nc2ccc(C(=N)N)cc2)c2nn(-c3cccnn3)c(=O)[nH]2)ccc1OC (racemic) [Example 121, (R) and (S)-4-{[(3-ethoxy-4-methoxyphenyl)-(5-oxo-1-pyridazin-3-yl-4,5-dihydro-1H-[1,2,4]triazol-3-yl)methyl]amino}benzamidine acetate]
2 | CCOc1cc(C(Nc2ccc(C(=N)N)cc2)c2nn(-c3ccccc3C(=O)O)c(=O)[nH]2)c(F)cc1OC (racemic) [Example 122, (R) and (S)-2-{3[(4-carbamimidoylphenylamino)-(5-ethoxy-2-fluoro-4-methoxyphenyl)methyl]-5-oxo-4,5-dihydro-[1,2,4]triazol-1-yl}benzoic acid acetate]
4.6 | COc1cc(C(Nc2ccc(C(=N)N)cc2)c2nn(-c3ncccc3F)c(=O)[nH]2)cc2c1OCC2 (racemic) [Example 123, (R) and (S)-4-({[1-(3-fluoropyridin-2-yl)-5-oxo-4,5-dihydro-1H-[1,2,4]triazol-3-yl]-(7-methoxy-2,3-dihydrobenzofuran-5-yl)methyl}amino)benzamidine acetate]
7.5 | COCCc1cc(C(Nc2ccc(C(=N)N)cc2)c2nn(-c3ncccn3)c(=O)[nH]2)cc(OC)c1OC (racemic) [Example 129, (R) and (S)-4-({[3,4-dimethoxy-5-(2-methoxyethyl)-phenyl]-(5-oxo-1-pyrimidin-2-yl-4,5-dihydro-1H-[1,2,4]triazol-3-yl)methyl}amino)benzamidine acetate]
5.6 | COc1cc(C(Nc2ccc(C(=N)N)cc2)c2nn(-c3ncccn3)c(=O)[nH]2)cc(CC#N)c1F (racemic) [Example 131, (R) and (S)-4-{[(3-cyanomethyl-4-fluoro-5-methoxyphenyl)-(5-oxo-1-pyrimidin-2-yl-4,5-dihydro-1H-[1,2,4]triazol-3-yl)methyl]amino}benzamidine acetate]
2.4 | CCOc1cc(C(Nc2ccc(C(=N)N)cc2)c2nn(-c3ncccc3F)c(=O)[nH]2)ccc1OC (racemic) [Example 132, (R) and (S)-4-({(3-ethoxy-4-methoxyphenyl)-[1-(3-fluoro-pyridin-2-yl)-5-oxo-4,5-dihydro-1H-[1,2,4]triazol-3-yl]methyl}amino}benzamidine acetate]

Reference: patent US7816522B2, “Triazolone derivatives” (Eisai Co., Ltd., priority 2006, dated 2010)
